Three substances from patent US20080312080A1 (priority 2006, published 2008) can be followed below.

The test system of this assay is Aspergillus parasiticus NRRL 2999. The format is cell-based.
As to “(S)-3-aminooctanoyl-(S)-3-aminooctanoyl-L-proline [Example 8]”, the “aflatoxin production inhibition activity (in words)” value is reported as “extremely excellent aflatoxin production inhibition activity”. For “(S)-3-aminooctanoyl-(S)-3-aminooctanoyl-glycine [Example 4]”, the “aflatoxin production inhibition activity (in words)” value is recorded as “extremely excellent aflatoxin production inhibition activity”.

As to “(S)-3-aminooctanoyl-(S)-3-aminooctanoyl-L-alanine [Example 6]”, the “aflatoxin production inhibition activity (in words)” value is given as “extremely excellent aflatoxin production inhibition activity”.
